# Results published in patent US6448283B1, “Methods for preventing/treating damage to sensory hair cells and cochlear neurons” (Cephalon, Inc., priority 1998, dated 2002).
# How the values were obtained:
# [1] = system: cochlear ganglion neurons; details: Ylikoski et al., 1998; cited from earlier work
# [2] = system: outer hair cells in organotypic cultures of the neonatal organ of Corti; assay: Hair cell counts in neomycin-exposed cochlear explant cultures; format: cell-based, rat
# Experimental: (§1) The basal half of cochleas containing the basal and middle turns were dissected from postnatal day 2 Wistar rats. The cultures were maintained on Nuclepore filters (pore size […]; Pleasanton, Calif.) placed on a metal grid in F12 medium (Life Technologies, Gaithersburg, Md.) containing 15% fetal bovine serum (Life Technologies). After a 2-hour-long stabilization period, explants were exposed to 100 mM neomycin sulfate (Sigma, St Louis, Mo.) for 48 hr.
# (§2) Explants were fixed with 4% paraformaldehyde/0.5% glutaraldehyde in phosphate buffered saline (PBS), pH 7.4, for 30 min and dissected for surface preparations. They were stained with a 1:100 dilution of rhodamine-phalloidin in PBS containing 0.25% Triton X-l 00 overnight at 4° C. and mounted in Vectashield (Vector). Outer hair cell (OHC) numbers were quantified with a Zeiss Axiovert 100/135 epifluorescent microscope (Germany) connected to a Bio-Rad MRC-1024 confocal laser scanning system (Richmond, Calif.). Hair cells were characterized as missing if no stereocilia and cuticular plate were observed. Numbers of OHCs were evaluated using a 40×objective lens and an ocular grid. Nine to 1 fields filled by 30 OHCs in each of the 3 rows (when all of them were present) were studied from each explant. Basal and middle coils were analyzed separately. Three separate experiments, each including 4 explants of both conditions (neomycin and neomycin plus Formula II) were analyzed.
# as §1, with “μM” for “mM”, “hr. The compounds of Formula I and the compound of Formula I were added at 500 nM at the time of initiation of the cultures and every 12 hr thereafter. Neomycin plus vehicle was used as a control.” for “hr.”
# as §2, with “X-100” for “X-l 00”, “40x objective” for “40×objective”, “Several” for “Nine to 1”, “separately.” for “separately. Three separate experiments, each including 4 explants of both conditions (neomycin and neomycin plus Formula II) were analyzed.”
# [3] = 100 mM neomycin (so in the source) alone for 48 hr, n=12
molecule,measurement,setting,value
"NGF: nerve growth factor, negative control in cochlear neuron cultures",survival of dissociated cochlear neurons of the perinatal rat,[1],does not have any effect or its effect is very weak
neomycin sulfate [reference compound],OHCs in the basal turn lost,[2]; [3],Approximately 90%
same,OHCs in the middle turn lost,[2]; [3],~25%
"O=C1NC(=O)c2c1c1c(c3[nH]c4ccccc4c23)Cc2ccccc2-1 [Example 8, 6H,12H,13H-Indeno[2,3-a]pyrrolo[3,4-c]carbazole-5,7(5H, 7H)-dione]",viability at 0.5 µM,"[2]; Rattus norvegicus, 48 h, compound 500 nM plus 100 μM neomycin 48 hr, NEO = neomycin plus vehicle, each line a separate count, read-out: % preserved",21%
"NT-3: neurotrophic factor, positive comparator in cochlear neuron cultures (protein, UniProt P20783 139-257, looked up) Neurotrophin-3: YAEHKSHRGEYSVCDSESLWVTDKSSAIDIRGHQVTVLGEIKTGNSPVKQYFYETRCKEARPVKNGCRGIDDKHWNSQCKTSQTYVRALTSENNKLVGWRWIRIDTSCVCALSRKIGRT",survival of dissociated cochlear neurons of the perinatal rat,[1],most potent neurotrophic factor promoting survival
